Earlier results on one compound are cited in US12359156B2, “Platform and method for testing antibiotic sensitivity of a polymicrobial infection” (Wisconsin Alumni Research Foundation, priority 2018, dated 2025).

This data set relates to infection (patients' bacterial pathogens). Conditions: phase 3 clinical trial.

Turning to `CO/N=C(\C(=O)N[C@@H]1C(=O)N2C(C(=O)O)=C(COC(C)=O)CS[C@H]12)c1csc(N)n1` [cefotaxime], the “patients who responded to the antibiotic therapy” value (patients with a "resistant" antibiotic sensitivity test result) is 64%. Besides, for the setting “patients with a "sensitive" antibiotic sensitivity test result, best case scenario”, the “patients who would respond to the antibiotic therapy” value is given as 93%.
